Experimental data from US10376476B2, “Panicein compounds, compositions and uses thereof” (CENTRE NATIONAL DE LA RECHERCHE SCIENTIFIQUE, priority 2014, dated 2019).

How the values were obtained:
[1] = molecular target: T1, wild-type Patched (hPtc) expressed in yeasts (Homo sapiens, UniProt Q13635); experiment: Doxorubicin efflux from yeasts (intracellular dxr fluorescence); format: cell-based; conditions: for dxr fluorescence in hPtc-expressing yeasts after efflux: 10 μM paniceins during efflux, contrary to control yeasts; for Efflux (%) of dxr: WT-hPtc-yeasts, 10 μM paniceins, 10 min, 5 mM 2-deoxy-D-glucose
T1 construct: MAP; expressed in transfected cells; host or cells: Saccharomyces cerevisiae K699
T1 sequence (Q13635 1-1447): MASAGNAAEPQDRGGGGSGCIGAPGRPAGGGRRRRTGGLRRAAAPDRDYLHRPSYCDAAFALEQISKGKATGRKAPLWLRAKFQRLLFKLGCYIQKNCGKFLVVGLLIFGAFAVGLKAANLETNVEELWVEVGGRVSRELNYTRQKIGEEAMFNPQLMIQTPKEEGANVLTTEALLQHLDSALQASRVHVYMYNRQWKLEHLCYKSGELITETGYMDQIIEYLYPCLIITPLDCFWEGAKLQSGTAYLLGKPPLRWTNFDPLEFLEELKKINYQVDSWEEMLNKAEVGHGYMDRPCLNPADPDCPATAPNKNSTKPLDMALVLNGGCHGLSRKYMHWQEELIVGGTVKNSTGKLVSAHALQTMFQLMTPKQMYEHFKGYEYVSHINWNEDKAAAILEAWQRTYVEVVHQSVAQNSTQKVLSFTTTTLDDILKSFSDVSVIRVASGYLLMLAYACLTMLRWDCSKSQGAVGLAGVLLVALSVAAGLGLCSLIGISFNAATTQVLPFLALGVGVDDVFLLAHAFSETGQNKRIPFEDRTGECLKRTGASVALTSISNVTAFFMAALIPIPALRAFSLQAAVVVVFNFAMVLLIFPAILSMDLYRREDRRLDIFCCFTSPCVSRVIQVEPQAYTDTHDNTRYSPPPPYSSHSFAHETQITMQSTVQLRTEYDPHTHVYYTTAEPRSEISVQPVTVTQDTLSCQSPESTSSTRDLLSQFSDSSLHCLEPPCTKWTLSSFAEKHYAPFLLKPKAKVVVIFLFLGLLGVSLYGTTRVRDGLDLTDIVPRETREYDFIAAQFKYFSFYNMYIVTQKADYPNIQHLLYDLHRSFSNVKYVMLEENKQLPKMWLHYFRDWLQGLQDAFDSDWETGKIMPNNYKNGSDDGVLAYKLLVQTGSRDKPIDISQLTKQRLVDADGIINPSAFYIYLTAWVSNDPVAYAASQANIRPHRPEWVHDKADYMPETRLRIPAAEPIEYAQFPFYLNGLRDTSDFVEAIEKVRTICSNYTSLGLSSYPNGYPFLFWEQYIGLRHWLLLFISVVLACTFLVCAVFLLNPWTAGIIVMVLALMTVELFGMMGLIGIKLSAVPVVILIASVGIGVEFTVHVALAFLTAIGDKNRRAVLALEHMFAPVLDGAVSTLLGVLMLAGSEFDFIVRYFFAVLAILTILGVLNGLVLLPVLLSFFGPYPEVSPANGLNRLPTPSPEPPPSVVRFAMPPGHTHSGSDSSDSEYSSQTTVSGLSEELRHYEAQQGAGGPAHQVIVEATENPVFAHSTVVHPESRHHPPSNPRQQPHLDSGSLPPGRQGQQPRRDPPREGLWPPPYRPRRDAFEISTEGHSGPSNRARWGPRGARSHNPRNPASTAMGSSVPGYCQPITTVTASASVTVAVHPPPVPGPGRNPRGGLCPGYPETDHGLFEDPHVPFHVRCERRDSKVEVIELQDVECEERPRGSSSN
Description: (§1) A. Compound P5 inhibits doxorubicin efflux from melanoma cells MeWo and A375. Cells were grown on cover-slips, incubated for 2 hour at 37° C. with 10 μM doxorubicin and quickly rinsed with phosphate buffer (pH 7.4). One cover-slip of each cell line was immediately fixed for doxorubicin charge control. The other cover-slips were incubated with buffer supplemented with DMSO or 10 μM of compound P5 30 min under gentle shaking and immediately fixed. Dxr intracellular fluorescence was visualized by epifluorescence and analyzed using Image J software on more than 30 cells of 3 different fields for each condition. The results were analyzed using the Student t test in which significance is attained at P<0.05 (**: P<0.005, ***: P<0.0005). B. Paniceins inhibit doxorubicin efflux from Patched-expressing yeasts. Yeasts expressing wild-type Patched (hPtc, in black), mutant Patched G509VD513Y (hPtcVXXXY, in grey), and control yeasts (in white) were incubated in buffer supplemented with 5 mM of 2-deoxy-D-glucose and 10 μM dxr for 2 hours at 4° C. After centrifugation and supernatant removing, one sample was immediately fixed for charge control and the other samples were resuspended in buffer containing 5 mM of 2-deoxy-D-glucose supplemented with DMSO or 10 μM of paniceins 10 minutes at 25° C. with gentle shaking. After centrifugation and supernatant removing, samples were fixed and deposited on coverslips for epifluorescence microscopy observation. Dxr intracellular fluorescence quantification was carried out using Image J software on more than 30 yeasts on 3 different fields for each condition. The results were analyzed using the Student t test in which significance is attained at P<0.05 (*).
On yeasts: Yeasts expressing Patched (hPtc), mutant Patched (hPtcG509VD513Y), or control yeasts were washed with cold water, resuspended at an OD600 of 10 in Hepes-NaOH buffer (pH 7.0) supplemented with 5 mM of 2-deoxy-D-glucose, and incubated with 10 μM doxorubicin for 2 hours at 4° C. in the cold room on a rotating wheel protected from light. Yeasts were centrifuged and the supernatant was removed. One sample was immediately fixed with 4% paraformaldehyde for doxorubicin loading control. The other samples were resuspended in Hepes-NaOH buffer (pH 7.0) containing 5 mM of 2-deoxy-D-glucose supplemented with DMSO or 10 μM of paniceins, and incubated 10 minutes at 20° C. with gentle shaking in a Benchmark Multi-therm shaker protected from light. Samples were centrifuged for 1 minute at 18,000 g, supernatants were removed and yeasts were fixed with 4% paraformaldehyde. 10 μL of each sample were deposited on a coverslip and observed by epifluorescence microscopy using an objective 63x and filters for Alexa 594. Quantification of doxorubicin intracellular fluorescence was carried out using Image J software on more than 30 yeasts on 3 different fields for each condition. The results were analyzed using the Student t test in which significance is attained at P <0.05.
In order to see if Paniceins inhibit dxr efflux through Patched inhibition, inventors compared dxr efflux on yeasts over-expressing human Patched and control yeasts. After loading with dxr, yeasts were centrifuged and fixed for dxr loading control (LC), or resuspended in buffer supplemented with DMSO or paniceins for efflux measurements. After 10 min a 20° C., yeasts were collected, fixed and deposited on cover-slips. 2-deoxy-D-glucose was added in buffer during loading and efflux in order to inhibit ATP-binding cassette (ABC) transporters. Dxr fluorescence intensity of at least 30 yeasts was measured for each experiment. FIGS. 6A and 12A show the mean fluorescence intensity of 3 independent experiments. […] This was confirmed using yeasts over-expressing Patched mutant VXXXY. […] Yeasts over-expressing hPtcVXXXY are less resistance to growth inhibition by dxr than yeasts over-expressing wild-type hPtc (Bidet et al., 2012).

control yeasts = experiment: as above; format: cell-based, Saccharomyces cerevisiae; conditions: 10 μM paniceins, 10 min, 5 mM 2-deoxy-D-glucose
Description: as §1
On yeasts: Yeasts expressing Patched (hPtc), mutant Patched (hPtcG509VD513Y), or control yeasts were washed with cold water, resuspended at an OD600 of 10 in Hepes-NaOH buffer (pH 7.0) supplemented with 5 mM of 2-deoxy-D-glucose, and incubated with 10 μM doxorubicin for 2 hours at 4° C. in the cold room on a rotating wheel protected from light. Yeasts were centrifuged and the supernatant was removed. One sample was immediately fixed with 4% paraformaldehyde for doxorubicin loading control. […] Quantification of doxorubicin intracellular fluorescence was carried out using Image J software on more than 30 yeasts on 3 different fields for each condition. The results were analyzed using the Student t test in which significance is attained at P <0.05.
In order to see if Paniceins inhibit dxr efflux through Patched inhibition, inventors compared dxr efflux on yeasts over-expressing human Patched and control yeasts. […] Dxr fluorescence intensity of at least 30 yeasts was measured for each experiment. FIGS. 6A and 12A show the mean fluorescence intensity of 3 independent experiments. […]

Row | Structure (SMILES) | dxr fluorescence in hPtc-expressing yeasts after efflux [1] | Efflux (%) of dxr [1] | Efflux (%) of dxr (control yeasts)
1 | COc1cc(C)c(CC/C(C)=C/Cc2cc(O)ccc2O)c(C)c1C [P5, Panicein A hydroquinone] | significantly higher amounts of dxr fluorescence | 40% | 39%
2 | C/C(=C\Cc1cc(O)ccc1O)CCc1c(C)cc(O)c(C=O)c1C [P3, Panicein B3] | – | 46% | 25%
3 | Cc1cc(O)c(C=O)c(C)c1CCC1(C)C=Cc2cc(O)ccc2O1 (stereo not shown) [P4, Panicein B2] | significantly higher amounts of dxr fluorescence | 46% | 29%
4 | C/C(=C\Cc1cc(O)ccc1O)CCc1c(C)c(O)c(O)c(C=O)c1C [P2, Panicein C] | – | 51% | 20%
